From US7094787B2, “Compositions for regulating desire for smoking” (Taiyo Kagaku Co., Ltd., priority 2000, dated 2006) come the findings set out here.

This series concerns mice. Type of series: in vivo. The settings on record: oral administration at 5 g/kg weight. From the text: The composition of the present invention is based on action for suppressing the craving for smoking that has been found for the theanine for the first time. The theanine has been known to be a main ingredient of sapidity in tea and used as a food additive for the sapidity. […] There is no limitation in an amount of addition based on the Food Hygiene Law. Further, unlike a conventional nicotine preparation, since there is no dependence, the composition of the present invention can suppress the craving for smoking safely and effectively.

Consider `CCNC(=O)CC[C@H](N)C(=O)O` [theanine, γ-glutamyl ethylamide], for which the “death in acute toxicity test” value was “no case of death”.
